Patent US7241767B2, “Quinazoline(di)ones for invertebrate pest control” (E. I. du Pont de Nemours and Company, priority 2002, dated 2007)

Columns and labels:
[1] = test system: green peach aphid (Myzus persicae); assay: Test E: control of green peach aphid on radish plant, contact and/or systemic; assay type: in vivo; details: 144 h, sprayed at 250 ppm, visually assessed after 6 days
Text: For evaluating control of green peach aphid (Myzus persicae) through contact and/or systemic means, the test unit consisted of a small- open container with a 12–15-day-old radish plant inside. This was pre-infested by placing on a leaf of the test plant 30–40 aphids on a piece of leaf excised from a culture plant (cut-leaf method). The larvae moved onto the test plant as the leaf piece desiccated. After pre-infestation, the soil of the test unit was covered with a layer of sand.
(§1) Test compounds were formulated using a solution containing 10% acetone, 90% water and 300 ppm X-77® Spreader Lo-Foam Formula non-ionic surfactant containing alkylarylpolyoxyethylene, free fatty acids, glycols and isopropanol (Loveland Industries, Inc.). The formulated compounds were applied in 1 mL of liquid through a SUJ2 atomizer nozzle with ⅛ JJ custom body (Spraying Systems Co.) positioned 1.27 cm (0.5 inches) above the top of each test unit. All experimental compounds in this screen were sprayed at 250 ppm and replicated three times. After spraying of the formulated test compound, each test unit was allowed to dry for 1 hour and then a black, screened cap was placed on top. The test units were held for 6 days in a growth chamber at 19–21° C. and 50–70% relative humidity. Each test unit was then visually assessed for insect mortality.

[2] = test system: cotton melon aphid (Aphis gossypii); assay: Test F: control of cotton melon aphid on cotton plant, contact and/or systemic; assay type: in vivo; details: 144 h, sprayed at 250 ppm, visually rated after 6 days
Procedure: as §1
For evaluating control of cotton melon aphid (Aphis gossypii) through contact and/or systemic means, the test unit consisted of a small open container with a 6–7-day-old cotton plant inside. This was pre-infested with 30–40 aphids on a piece of leaf according to the cut-leaf method described for Test E, and the soil of the test unit was covered with a layer of sand.
Test compounds were formulated and sprayed at 250 ppm as described for Test E. The applications were replicated three times. After spraying, the test units were maintained in a growth chamber and then visually rated as described for Test E.

[3] = test system: Potato Leafhopper (Empoasca fabae Harris); assay: Test H: control of Potato Leafhopper on Longio bean plant, contact and/or systemic; assay type: in vivo; details: 144 h, sprayed at 250 ppm, post-infested with adults, visually assessed after 6 days
Procedure: as §1
For evaluating control of Potato Leafhopper (Empoasca fabae Harris) through contact and/or systemic means, the test unit consisted of a small open container with a 5–6 day old Longio bean plant (primary leaves emerged) inside. White sand was added to the top of the soil and one of the primary leaves was excised prior to application. Test compounds were formulated and sprayed at 250 ppm and replicated three times as described for Test E. After spraying, the test units were allowed to dry for 1 hour before they were post-infested with 5 Potato Leafhoppers (18 to 21 day old adults). A black, screened cap is placed on the top of the cylinder. The test units were held for 6 days in a growth chamber at 19–21° C. and 50–70% relative humidity. Each test unit was then visually assessed for insect mortality.

[4] = test system: Corn Planthopper (Peregrinus maidis); assay: Test G: control of Corn Planthopper on corn (maize) plant, contact and/or systemic; assay type: in vivo; details: 144 h, sprayed at 250 ppm, post-infested with nymphs, visually assessed after 6 days
Procedure: as §1
For evaluating control of Corn Planthopper (Peregrinus maidis) through contact and/or systemic means, the test unit consisted of a small open container with a 3–4 day old corn (maize) plant (spike) inside. White sand was added to the top of the soil prior to application. […] Each test unit was then visually assessed for insect mortality.

| SMILES | mortality at 250 ppm [1] | mortality at 250 ppm [2] | mortality at 250 ppm [3] | melting point | mortality at 250 ppm [4] |
| --- | --- | --- | --- | --- | --- |
| O=C1NCN(C(=O)c2cc(C(F)(F)F)nn2-c2ncccc2Cl)c2c(Cl)cc(Cl)cc21 [Compound 29, 6,8-Dichloro-1-[[1-(3-Chloro-2-pyridinyl)-3-(trifluoromethyl)-1H-pyrazol-5-yl]carbonyl]-2,3-dihydro-4(1H)-quinazolinone] | ≥ 80% | ≥ 80% | ≥ 80% | – | – |
| Cc1cc(Cl)cc2c1N(C(=O)c1cc(Cl)nn1-c1ncccc1Cl)CN(C(C)C)C2=O [Compound 14, 6-Chloro-1-[[3-Chloro-1-(3-Chloro-2-pyridinyl)-1H-pyrazol-5-yl]carbonyl]-2,3-dihydro-8-methyl-3-(1-methylethyl)-4(1H)-quinazolinone] | – | – | – | 219 to 220 °C | – |
| Cc1cc(Cl)cc2c1N(C(=O)c1cc(C(F)(F)F)nn1-c1ncccc1Cl)CN(C)C2=O [Compound 19, 6-Chloro-1-[[1-(3-Chloro-2-pyridinyl)-3-(tifluoromethyl)-1H-pyrazol-5-yl]carbonyl]-2,3-dihydro-3,8-dimethyl-4(1H)-quinazolinone] | ≥ 80% | ≥ 80% | ≥ 80% | – | – |
| CC(C)N1CN(C(=O)c2cc(Cl)nn2-c2ncccc2Cl)c2c(Cl)cc(Cl)cc2C1=O [Compound 8, 6,8-Dichloro-1-[[3-Chloro-1-(3-Chloro-2-pyridinyl)-1H-pyrazol-5-yl]carbonyl]-2,3-dihydro-3-(1-methylethyl)-4(H)-quinazolinone] | ≥ 80% | ≥ 80% | ≥ 80% | – | – |
| CC(C)N1CN(C(=O)c2cc(C(F)(F)F)nn2-c2ncccc2Cl)c2c(Cl)cc(Cl)cc2C1=O [Compound 10, 6,8-Dichloro-1-[[1-(3-Chloro-2-pyridinyl)-3-(trifluoromethyl)-1H-pyrazol-5-yl]carbonyl]-2,3-dihydro-3-(1-methylethyl)-4(1H)-quinazolinone] | – | – | ≥ 80% | – | – |
| CN1CN(C(=O)c2cc(Br)nn2-c2ncccc2Cl)c2c(Cl)cc(Cl)cc2C1=O [Compound 12, 1-[[3-Bromo-1-(3-Chloro-2-pyridinyl)-1H-pyrazol-5-yl]carbonyl]-6,8-dichloro-2,3-dihydro-3-methyl-4(1H)-quinazolinone] | ≥ 80% | ≥ 80% | ≥ 80% | – | ≥ 80% |
| CC(C)N1CN(C(=O)c2cc(Br)nn2-c2ncccc2Cl)c2c(Cl)cc(Cl)cc2C1=O [Compound 9, 1-[[3-Bromo-1-(3-Chloro-2-pyridinyl)-1H-pyrazol-5-yl]carbonyl]-6,8-dichloro-2,3-dihydro-3-(1-methylethyl)-4-(1H)-quinazolinone] | ≥ 80% | ≥ 80% | ≥ 80% | – | – |
| Cc1cc(Cl)cc2c1N(C(=O)c1cc(Br)nn1-c1ncccc1Cl)CN(C(C)C)C2=O [Compound 15, 1-[[3-Bromo-1-(3-Chloro-2-pyridinyl)-1H-pyrazol-5-yl]carbonyl]-6-Chloro-2,3-dihydro-8-methyl-3-(1-methylethyl)-4-(1H)-quinazolinone] | – | ≥ 80% | ≥ 80% | – | – |
| O=C1c2cc(Cl)cc(Cl)c2N(C(=O)c2cc(Cl)nn2-c2ncccc2Cl)C(c2c[nH]cn2)N1Cl (centres unmarked) [Compound 24] | – | – | ≥ 80% | – | – |
| CN1CN(C(=O)c2cc(Cl)nn2-c2ncccc2Cl)c2c(Cl)cc(Cl)cc2C1=O [Compound 11, 6-8-Dichloro-1-[[3-Chloro-1-(3-Chloro-2-pyridinyl)-1H-pyrazol-5-yl]carbonyl]-2,3-dihydro-3-methyl-4(1H)-quinazolinone] | ≥ 80% | ≥ 80% | ≥ 80% | – | – |
| CN1CN(C(=O)c2cc(C(F)(F)F)nn2-c2ncccc2Cl)c2c(Cl)cc(Cl)cc2C1=O [Compound 13, 6,8-Dichloro-1-[[1-(3-Chloro-2-pyridinyl)-3-(trifluoromethyl)-1H-pyrazol-5-yl]carbonyl]-2,3-dihydro-3-methyl-4(1H)-quinazolinone] | ≥ 80% | ≥ 80% | ≥ 80% | – | ≥ 80% |
| Cc1cc(Cl)cc2c1N(C(=O)c1cc(Cl)nn1-c1ncccc1Cl)CN(C)C2=O [Compound 17, 6-Chloro-1-[[3-Chloro-1-(3-Chloro-2-pyridinyl)-1H-pyrazol-5-yl]carbonyl]-2,3-dihydro-3,8-dimethyl-4(1H)-quinazolinone] | – | – | – | 238 to 240 °C | – |
| Cc1cccc2c1N(C(=O)c1cc(Cl)nn1-c1ncccc1Cl)C(C(=O)O)N(C(C)C)C2=O (centres unmarked) [Compound 20] | – | – | – | 143 to 190 °C | – |
| Cc1cc(Cl)cc2c1N(C(=O)c1cc(Br)nn1-c1ncccc1Cl)CN(C)C2=O [Compound 18, 1-[[3-Bromo-1-(3-Chloro-2-pyridinyl)-1H-pyrazol-5-yl]carbonyl]-6-Chloro-2,3-dihydro-3,8-dimethyl-4(1H)-quinazolinone] | – | – | – | 254 to 255 °C | – |
| Cc1cc(Cl)cc2c1N(C(=O)c1cc(C(F)(F)F)nn1-c1ncccc1Cl)CN(C(C)C)C2=O [Compound 16, 6-Chloro-1-[[1-(3-Chloro-2-pyridinyl)-3-(trifluoromethyl)-1H-pyrazol-5-yl]carbonyl]-2,3-dihydro-8-methyl-3-(1-methylethyl)-4(1H)-quinazolinone] | – | ≥ 80% | ≥ 80% | – | – |
| O=C1NCN(C(=O)c2cc(Cl)nn2-c2ncccc2Cl)c2c(Cl)cc(Cl)cc21 [Compound 28, 6,8-Dichloro-1-[[3-Chloro-1-(3-Chloro-2-pyridinyl)-1H-pyrazol-5-yl]carbonyl]-2,3-dihydro-4(1H)-quinazolinone] | ≥ 80% | – | – | – | – |
| O=C1c2cc(Cl)cc(Cl)c2N(C(=O)c2cc(Cl)nn2-c2ncccc2Cl)C(c2cccnc2)N1Cl (centres unmarked) [Compound 22] | – | – | – | 135 to 156 °C | – |
